# Data: patent US20200024278A1, “COMPOSITION COMPRISING ANTIBIOTIC COMPOUND AND AN HETEROCYCLIC COMPOUND AND THEIR USE IN PREVENTING OR TREATING BACTERIAL INFECTIONS” (MUTABILIS, priority 2016, published 2020)
# Like-named read-outs stand apart in the source and are kept apart here.
# Legend:
# Test in all cases: MIC, broth microdilution (CLSI), substance alone or ATB combined with compound at 4 or 8 μg/mL
# ECO 190317 = type: cell-based, E. coli; settings: Escherichia coli, ECO 190317
# Outline: (§1)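 Potentiation format: antibiotic dilution series run with test compound held at 4 or 8 μg/mL, alongside compound-alone MICs. Broth microdilution per CLSI in ca-MHB, 16-20 h at 35° C.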
# ECO UFR39 = type: cell-based, E. coli; settings: Escherichia coli, ECO UFR39
# Outline: as §1
# KPN 6299 = type: cell-based, K. pneumoniae; settings: Klebsiella pneumoniae
# Outline: as §1
# KPN UFR68 = type: cell-based, K. pneumoniae; settings: Klebsiella pneumoniae, substance alone
# Outline: as §1
# ECL P99 = type: cell-based, E. cloacae; settings: Enterobacter cloacae, ECL P99
# Outline: as §1
# PAE 105250 = type: cell-based, P. aeruginosa; settings: Pseudomonas aeruginosa, PAE 105250
# Outline: as §1
# PAE UFR48 = type: cell-based, P. aeruginosa; settings: Pseudomonas aeruginosa, PAE UFR48
# Outline: as §1
# PAE UFR90 = type: cell-based, P. aeruginosa; settings: Pseudomonas aeruginosa, PAE UFR90
# Outline: as §1
# SAU 29213 = type: cell-based, S. aureus; settings: Staphylococcus aureus
# Outline: as §1
# SPN 49619 = type: cell-based, S. pneumoniae; settings: Streptococcus pneumoniae, SPN 49619
# Outline: as §1
# ABA 19606 = type: cell-based, A. baumannii
# Experimental: (§2) Compounds of the present invention were assessed against genotyped bacterial strains alone or in combination with an antibacterial. In the assays, MICs of said compounds or combination of antibiotics with fixed concentrations of said compounds (4 or 8 μg/mL) were determined by the broth microdilution method according to the Clinical Laboratory Standards Institute (CLSI-M7-A7). Briefly, compounds alone according to the invention were prepared in DMSO and spotted (2 μL each) on sterile polystyrene plates (Corning, 3788). Combinations of compounds and antibiotics dilutions were prepared in DMSO and spotted (1 μL each) on sterile polystyrene plates (Corning, 3788). Log phase bacterial suspensions were adjusted to a final density of 5·10^5 CFU/mL in cation-adjusted Mueller-Hinton broth (ca-MHB; Becton-Dickinson and Company) and added to each well (98 μL). Assays including Fosfomycin were supplemented with 25 μg/ml of Glucose-6-phosphate. Microplates were incubated for 16-20 h at 35° C. in ambient air. The MIC of the compounds was defined as the lowest concentration of said compounds that prevented bacterial growth as read by visual inspection. The MIC of ATB at each compound concentration was defined as the lowest concentration of ATB that prevented bacterial growth as read by visual inspection.
# ABA UFR151 = type: cell-based, A. baumannii
# Experimental: as §2
# ABA UFR152 = type: cell-based, A. baumannii
# Experimental: as §2
# ABA UFR153 = type: cell-based, A. baumannii
# Experimental: as §2
# ABA UFR154 = type: cell-based, A. baumannii
# Experimental: as §2
# ABA UFR155 = type: cell-based, A. baumannii
# Experimental: as §2
# ABA UFR156 = type: cell-based, A. baumannii
# Experimental: as §2
# ABA UFR157 = type: cell-based, A. baumannii
# Experimental: as §2
# ABA UFR158 = type: cell-based, A. baumannii; settings: with Example 6 @8 μg/ml
# Experimental: as §2
# ABA UFR160 = type: cell-based, A. baumannii; settings: with Example 6 @8 μg/ml
# Experimental: as §2
# [1] = antibiotic alone, read-out: MIC ATB alone
# [2] = Acinetobacter baumannii, antibiotic alone, read-out: MIC ATB alone
structure (smiles),measurement,setting,value
"C[C@@H](O)[C@H]1C(=O)N2C(C(=O)O)=C(S[C@@H]3CN[C@H](C(=O)N(C)C)C3)[C@H](C)[C@H]12 [MEM, Meropenem]",MIC,ECO 190317; [1],0.031 µg/mL
same,MIC,"ECO 190317; substance alone, read-out: MIC",0.031 µg/mL
same,MIC,ECO UFR39; [1],64 µg/mL
same,MIC,"ECO UFR39; substance alone, read-out: MIC",64 µg/mL
same,MIC,KPN 6299; [1],1 µg/mL
same,MIC,"KPN 6299; substance alone, read-out: MIC",1 µg/mL
same,MIC,KPN UFR68,32 µg/mL
same,MIC,ECL P99; [1],0.063 µg/mL
same,MIC,"ECL P99; substance alone, read-out: MIC",0.063 µg/mL
same,MIC,PAE 105250; [1],4 µg/mL
same,MIC,"PAE 105250; substance alone, read-out: MIC",4 µg/mL
same,MIC,PAE UFR48; [1],4 µg/mL
same,MIC,"PAE UFR48; substance alone, read-out: MIC",4 µg/mL
same,MIC,PAE UFR90; [1],2 µg/mL
same,MIC,"PAE UFR90; substance alone, read-out: MIC",2 µg/mL
same,MIC,SAU 29213; MSSA,0.125 µg/mL
same,MIC,"SAU 29213; antibiotic alone, SAU 29213, read-out: MIC ATB alone",0.125 µg/mL
same,MIC,SPN 49619; [1],0.063 µg/mL
same,MIC,"SPN 49619; substance alone, read-out: MIC",0.063 µg/mL
same,MIC,ABA 19606; [2],1 µg/mL
same,MIC ATB combined with Example 1 @8 μg/ml,ABA 19606; with Example 1 @8 μg/ml,1 µg/mL
same,MIC ATB combined with Example 3 @8 μg/ml,ABA 19606; with Example 3 @8 μg/ml,<=0.25 μg/mL
same,MIC ATB combined with Example 6 @8 μg/ml,ABA 19606; with Example 6 @8 μg/ml,<=0.25 μg/mL
same,MIC ATB combined with Example 9 @4 μg/ml,ABA 19606; with Example 9 @4 μg/ml,2 µg/mL
same,MIC ATB combined with Example 10 @8 μg/ml,ABA 19606; with Example 10 @8 μg/ml,<=0.25 μg/mL
same,MIC ATB combined with Example 11 @8 μg/ml,ABA 19606; with Example 11 @8 μg/ml,0.5 µg/mL
same,MIC ATB combined with Example 12 @8 μg/ml,ABA 19606; with Example 12 @8 μg/ml,<=0.25 μg/mL
same,MIC ATB combined with Example 15 @4 μg/ml,ABA 19606; with Example 15 @4 μg/ml,0.5 µg/mL
same,MIC,ABA UFR151; [2],0.5 µg/mL
same,MIC ATB combined with Example 1 @8 μg/ml,ABA UFR151; with Example 1 @8 μg/ml,<=0.25 μg/mL
same,MIC ATB combined with Example 3 @8 μg/ml,ABA UFR151; with Example 3 @8 μg/ml,<=0.25 μg/mL
same,MIC ATB combined with Example 6 @8 μg/ml,ABA UFR151; with Example 6 @8 μg/ml,<=0.25 μg/mL
same,MIC ATB combined with Example 9 @4 μg/ml,ABA UFR151; with Example 9 @4 μg/ml,<=0.25 μg/mL
same,MIC ATB combined with Example 10 @8 μg/ml,ABA UFR151; with Example 10 @8 μg/ml,<=0.25 μg/mL
same,MIC ATB combined with Example 11 @8 μg/ml,ABA UFR151; with Example 11 @8 μg/ml,0.5 µg/mL
same,MIC ATB combined with Example 12 @8 μg/ml,ABA UFR151; with Example 12 @8 μg/ml,<=0.25 μg/mL
same,MIC ATB combined with Example 15 @4 μg/ml,ABA UFR151; with Example 15 @4 μg/ml,0.5 µg/mL
same,MIC,ABA UFR152; [2],2 µg/mL
same,MIC ATB combined with Example 1 @8 μg/ml,ABA UFR152; with Example 1 @8 μg/ml,4 µg/mL
same,MIC ATB combined with Example 3 @8 μg/ml,ABA UFR152; with Example 3 @8 μg/ml,1 µg/mL
same,MIC ATB combined with Example 6 @8 μg/ml,ABA UFR152; with Example 6 @8 μg/ml,2 µg/mL
same,MIC ATB combined with Example 9 @4 μg/ml,ABA UFR152; with Example 9 @4 μg/ml,1 µg/mL
same,MIC ATB combined with Example 10 @8 μg/ml,ABA UFR152; with Example 10 @8 μg/ml,1 µg/mL
same,MIC ATB combined with Example 11 @8 μg/ml,ABA UFR152; with Example 11 @8 μg/ml,1 µg/mL
same,MIC ATB combined with Example 12 @8 μg/ml,ABA UFR152; with Example 12 @8 μg/ml,1 µg/mL
same,MIC ATB combined with Example 15 @4 μg/ml,ABA UFR152; with Example 15 @4 μg/ml,1 µg/mL
same,MIC,ABA UFR153; [2],1 µg/mL
same,MIC ATB combined with Example 1 @8 μg/ml,ABA UFR153; with Example 1 @8 μg/ml,1 µg/mL
same,MIC ATB combined with Example 3 @8 μg/ml,ABA UFR153; with Example 3 @8 μg/ml,<=0.25 μg/mL
same,MIC ATB combined with Example 6 @8 μg/ml,ABA UFR153; with Example 6 @8 μg/ml,<0.25 µg/mL
same,MIC ATB combined with Example 9 @4 μg/ml,ABA UFR153; with Example 9 @4 μg/ml,<=0.25 μg/mL
same,MIC ATB combined with Example 10 @8 μg/ml,ABA UFR153; with Example 10 @8 μg/ml,<=0.25 μg/mL
same,MIC ATB combined with Example 11 @8 μg/ml,ABA UFR153; with Example 11 @8 μg/ml,1 µg/mL
same,MIC ATB combined with Example 12 @8 μg/ml,ABA UFR153; with Example 12 @8 μg/ml,<=0.25 μg/mL
same,MIC ATB combined with Example 15 @4 μg/ml,ABA UFR153; with Example 15 @4 μg/ml,<=0.25 μg/mL
same,MIC,ABA UFR154; [2],1 µg/mL
same,MIC ATB combined with Example 1 @8 μg/ml,ABA UFR154; with Example 1 @8 μg/ml,0.5 µg/mL
same,MIC ATB combined with Example 3 @8 μg/ml,ABA UFR154; with Example 3 @8 μg/ml,<=0.25 μg/mL
same,MIC ATB combined with Example 6 @8 μg/ml,ABA UFR154; with Example 6 @8 μg/ml,0.5 µg/mL
same,MIC ATB combined with Example 9 @4 μg/ml,ABA UFR154; with Example 9 @4 μg/ml,0.5 µg/mL
same,MIC ATB combined with Example 10 @8 μg/ml,ABA UFR154; with Example 10 @8 μg/ml,<=0.25 μg/mL
same,MIC ATB combined with Example 11 @8 μg/ml,ABA UFR154; with Example 11 @8 μg/ml,1 µg/mL
same,MIC ATB combined with Example 12 @8 μg/ml,ABA UFR154; with Example 12 @8 μg/ml,<=0.25 μg/mL
same,MIC ATB combined with Example 15 @4 μg/ml,ABA UFR154; with Example 15 @4 μg/ml,0.5 µg/mL
same,MIC,ABA UFR155; [2],32 µg/mL
same,MIC ATB combined with Example 1 @8 μg/ml,ABA UFR155; with Example 1 @8 μg/ml,16 µg/mL
same,MIC ATB combined with Example 3 @8 μg/ml,ABA UFR155; with Example 3 @8 μg/ml,8 µg/mL
same,MIC ATB combined with Example 6 @8 μg/ml,ABA UFR155; with Example 6 @8 μg/ml,16 µg/mL
same,MIC ATB combined with Example 9 @4 μg/ml,ABA UFR155; with Example 9 @4 μg/ml,16 µg/mL
same,MIC ATB combined with Example 10 @8 μg/ml,ABA UFR155; with Example 10 @8 μg/ml,8 µg/mL
same,MIC ATB combined with Example 11 @8 μg/ml,ABA UFR155; with Example 11 @8 μg/ml,16 µg/mL
same,MIC ATB combined with Example 12 @8 μg/ml,ABA UFR155; with Example 12 @8 μg/ml,16 µg/mL
same,MIC ATB combined with Example 15 @4 μg/ml,ABA UFR155; with Example 15 @4 μg/ml,64 µg/mL
same,MIC,ABA UFR156; [2],64 µg/mL
same,MIC ATB combined with Example 1 @8 μg/ml,ABA UFR156; with Example 1 @8 μg/ml,64 µg/mL
same,MIC ATB combined with Example 3 @8 μg/ml,ABA UFR156; with Example 3 @8 μg/ml,8 µg/mL
same,MIC ATB combined with Example 6 @8 μg/ml,ABA UFR156; with Example 6 @8 μg/ml,16 µg/mL
same,MIC ATB combined with Example 9 @4 μg/ml,ABA UFR156; with Example 9 @4 μg/ml,64 µg/mL
same,MIC ATB combined with Example 10 @8 μg/ml,ABA UFR156; with Example 10 @8 μg/ml,8 µg/mL
same,MIC ATB combined with Example 11 @8 μg/ml,ABA UFR156; with Example 11 @8 μg/ml,64 µg/mL
same,MIC ATB combined with Example 12 @8 μg/ml,ABA UFR156; with Example 12 @8 μg/ml,32 µg/mL
same,MIC ATB combined with Example 15 @4 μg/ml,ABA UFR156; with Example 15 @4 μg/ml,64 µg/mL
same,MIC,ABA UFR157; [2],32 µg/mL
same,MIC ATB combined with Example 1 @8 μg/ml,ABA UFR157; with Example 1 @8 μg/ml,1 µg/mL
same,MIC ATB combined with Example 3 @8 μg/ml,ABA UFR157; with Example 3 @8 μg/ml,<=0.25 μg/mL
same,MIC ATB combined with Example 6 @8 μg/ml,ABA UFR157; with Example 6 @8 μg/ml,<=0.25 μg/mL
same,MIC ATB combined with Example 9 @4 μg/ml,ABA UFR157; with Example 9 @4 μg/ml,1 µg/mL
same,MIC ATB combined with Example 10 @8 μg/ml,ABA UFR157; with Example 10 @8 μg/ml,0.5 µg/mL
same,MIC ATB combined with Example 11 @8 μg/ml,ABA UFR157; with Example 11 @8 μg/ml,0.5 µg/mL
same,MIC ATB combined with Example 12 @8 μg/ml,ABA UFR157; with Example 12 @8 μg/ml,<=0.25 μg/mL
same,MIC ATB combined with Example 15 @4 μg/ml,ABA UFR157; with Example 15 @4 μg/ml,0.5 µg/mL
same,MIC ATB combined with Example 6 @8 μg/ml,ABA UFR158,<0.25 µg/mL
same,MIC ATB combined with Example 6 @8 μg/ml,ABA UFR160,<0.25 µg/mL
